One may read the inhibition as the change of the read-out against control, counted positive when it falls. For orientation: IC50 means the concentration at which inhibition is half-maximal. Usually Kb stands for the equilibrium dissociation constant of an antagonist, usually derived from a functional assay.

The text below walks through data of patent US12275744B2, “Pyrazole and imidazole derivatives, compositions and methods as orexin antagonists” (HAGER BIOSCIENCES, LLC, priority 2019, dated 2025).

In one test the target is T1, human orexin-2 receptor (Homo sapiens, UniProt O43614).
T1 sequence (O43614 1-444): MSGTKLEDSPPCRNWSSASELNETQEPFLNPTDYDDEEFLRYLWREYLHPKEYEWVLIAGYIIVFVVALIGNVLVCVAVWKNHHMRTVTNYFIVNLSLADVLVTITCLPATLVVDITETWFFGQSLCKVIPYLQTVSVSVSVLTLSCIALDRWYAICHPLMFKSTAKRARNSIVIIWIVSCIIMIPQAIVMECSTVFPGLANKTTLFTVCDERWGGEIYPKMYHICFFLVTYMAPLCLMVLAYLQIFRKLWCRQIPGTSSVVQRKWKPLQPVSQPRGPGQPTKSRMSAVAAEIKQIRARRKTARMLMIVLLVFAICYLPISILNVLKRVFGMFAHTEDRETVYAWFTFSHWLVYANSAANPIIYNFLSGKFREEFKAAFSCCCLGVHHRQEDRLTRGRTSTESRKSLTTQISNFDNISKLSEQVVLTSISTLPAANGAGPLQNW
Nature of the test: Intracellular calcium measurement (FLIPR), antagonism of orexin-A response in CHO cells expressing OX2R. Particulars: for inhibition at 1 µM: CHO, read-out: % Inhibition of OX2R @1 uM compound. In general terms: Calcium flux is commonly read through the fluorescence of an indicator in the cells.

A further test has as its target T2, human orexin-1 receptor (Homo sapiens, UniProt O43613).
T2 sequence (O43613 1-425): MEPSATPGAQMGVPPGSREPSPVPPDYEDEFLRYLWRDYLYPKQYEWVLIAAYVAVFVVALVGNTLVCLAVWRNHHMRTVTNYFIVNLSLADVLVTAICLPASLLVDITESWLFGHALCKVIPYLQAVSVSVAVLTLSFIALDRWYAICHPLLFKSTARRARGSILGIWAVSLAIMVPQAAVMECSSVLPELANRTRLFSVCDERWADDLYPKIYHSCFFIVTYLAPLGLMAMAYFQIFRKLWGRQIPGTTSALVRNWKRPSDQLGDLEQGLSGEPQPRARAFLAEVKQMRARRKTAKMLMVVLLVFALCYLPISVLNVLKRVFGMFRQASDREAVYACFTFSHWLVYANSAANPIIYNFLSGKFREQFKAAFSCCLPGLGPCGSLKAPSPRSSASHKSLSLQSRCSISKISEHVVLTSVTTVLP
Nature of the test: Intracellular calcium measurement (FLIPR), antagonism of orexin-A response in CHO cells expressing OX1R. The conditions noted are these: for inhibition at 1 µM: CHO, read-out: % Inhibition of OX1R @1 uM compound.

The next test has as its target T3, OX1R (Homo sapiens, UniProt O43613).
T3 sequence (O43613 1-425): T2 sequence (O43613 1-425)
Particulars: relative to Orexin B; Kodadek and Cai 2010; cited from earlier work.

Procedure for human orexin-1 receptor: (§1) In Vitro Assay: Intracellular Calcium Measurements:
(§2) Chinese hamster ovary (CHO) cells expressing the human orexin-1 receptor and the human orexin-2 receptor, respectively, are grown in culture medium (Ham F-12 with L-Glutamine) containing 300 μg/mL G418, 100 U/mL penicillin, 100 μg/mL streptomycin and 10% heat inactivated fetal calf serum (FCS). The cells are seeded at 20,000 cells/well into 384-well black clear bottom sterile plates (Greiner). The seeded plates are incubated overnight at 37° C. in 5% CO2.
(§3) Within the Fluorescent Imaging Plate Reader (FLIPR Tetra, Molecular Devices), antagonists are added to the plate in a volume of 10 μL/well, incubated for 120 min and finally 10 μL/well of agonist is added. Fluorescence is measured for each well at 1 second intervals, and the height of each fluorescence peak is compared to the height of the fluorescence peak-induced by 3 nM orexin-A with vehicle in place of antagonist. […] Optimized conditions were achieved by adjustment of pipetting speed and cell splitting regime. The calculated IC50 values may fluctuate depending on the daily cellular assay performance.
Procedure for human orexin-2 receptor: as §1, §2, §3

`O=C(c1c(-c2ccccc2)nn2c1COCC2)N1CCC[C@H]1Cn1ccc(-c2ccccc2)n1` [Example 1]: the inhibition at 1 µM on human orexin-2 receptor came to 28.2%. Further, at human orexin-1 receptor, the concentration for half-maximal inhibition (IC50) was 33 nM, the Kb was 7 nM and the inhibition at 1 µM worked out at 69.7%.

As to `O=C(c1c(-c2ccccc2)nn2c1COCC2)N1CCC[C@H]1CNc1ccc(C(F)(F)F)cn1` [Example 2], at human orexin-2 receptor, the inhibition at 1 µM came out at 20.9%. Moreover, on human orexin-1 receptor, the IC50 was 122 nM, the antagonist equilibrium constant (Kb) was 26 nM and the inhibition at 1 µM was 62.8%.

In the case of `CCc1cnc(NC[C@@H]2CCCN2C(=O)c2c(-c3ccccc3)nn3c2COCC3)nc1` [Example 3], the figures for the inhibition at 1 µM at human orexin-2 receptor and on human orexin-1 receptor were 14.2% and 14%, respectively.

For `CCc1cnc(NC[C@@H]2[C@H](C)CCCN2C(=O)c2c(-c3ccccc3)nn3ccccc23)nc1` [Example 4], the inhibition at 1 µM on human orexin-2 receptor is 12.8%; at human orexin-1 receptor it was 85.7%.

In the case of `CCc1cnc(NC[C@@H]2[C@H](C)CCCN2C(=O)c2c(-c3ccccc3)nn3c2COCC3)nc1` [Example 5], the inhibition at 1 µM on human orexin-2 receptor was 0.4%. Also, at human orexin-1 receptor, the concentration for half-maximal inhibition (IC50) was found to be 136 nM, the antagonist equilibrium constant (Kb) turned out to be 29 nM and the inhibition at 1 µM came to 71%.

On to `C[C@@H]1CCCN(C(=O)c2c(-c3ccccc3)nn3ccccc23)[C@@H]1CNc1ccc(C(F)(F)F)cn1` [Example 6], for which, at human orexin-2 receptor, the inhibition at 1 µM stood at 38.5%. Moreover, on human orexin-1 receptor, the half-maximal inhibitory concentration (IC50) stood at 8 nM, the Kb was 1.7 nM and the inhibition at 1 µM was determined as 87.6%.

Regarding `C[C@@H]1CCCN(C(=O)c2c(-c3ccccc3)nn3c2COCC3)[C@@H]1CNc1ccc(C(F)(F)F)cn1` [Example 7], at human orexin-2 receptor, the inhibition at 1 µM turned out to be 2.44%. For the same molecule, at human orexin-1 receptor, the IC50 is 9 nM, the Kb worked out at 2 nM and the inhibition at 1 µM is 80.1%.

Regarding `C[C@@H]1CCCN(C(=O)c2c(-c3ccccc3)nc3ccccn23)[C@@H]1CNc1ccc(C(F)(F)F)cn1` [Example 8], the inhibition at 1 µM at human orexin-2 receptor stood at 13.8%. Also, on human orexin-1 receptor, the IC50 is 5 nM, the Kb turned out to be 1 nM and the inhibition at 1 µM came to 86.1%.

Consider `CCc1cnc(NC[C@@H]2[C@H](C)CCCN2C(=O)c2c(-c3ccccc3)nc3ccccn23)nc1` [Example 9], for which the inhibition at 1 µM on human orexin-2 receptor is -2.51%. At human orexin-1 receptor, the half-maximal inhibitory concentration (IC50) was found to be 59 nM, the Kb was 12 nM and the inhibition at 1 µM turned out to be 76.8%.

Consider `O=C(c1c(-c2ccccc2)nn2ccccc12)N1CCC[C@H]1CNc1ccc(C(F)(F)F)cn1` [Example 10], for which the inhibition at 1 µM at human orexin-2 receptor came to 43.5%. Further, at human orexin-1 receptor, the IC50 was found to be 3.5 nM, the Kb worked out at 0.7 nM and the inhibition at 1 µM came to 86.9%.

As to `O=C(c1c(-c2ccccc2)nc2ccccn12)N1CCC[C@H]1CNc1ccc(C(F)(F)F)cn1` [Example 11], the inhibition at 1 µM on human orexin-2 receptor worked out at 21.6%. On human orexin-1 receptor, the IC50 turned out to be 39 nM, the Kb stood at 8 nM and the inhibition at 1 µM is 67.1%.

Take `O=C(c1c(-c2ccccc2)nc2ccccn12)N1CCC[C@H]1Cn1ccc(-c2ccccc2)n1` [Example 12]: the inhibition at 1 µM at human orexin-2 receptor turned out to be 46.1%. Also, at human orexin-1 receptor, the IC50 is 2 nM, the antagonist equilibrium constant (Kb) stood at 0.5 nM and the inhibition at 1 µM is 88.9%.

In the case of `O=C(c1c(-c2ccccc2)nn2ccccc12)N1CCC[C@H]1Cn1ccc(-c2ccccc2)n1` [Example 13], at human orexin-2 receptor, the IC50 was 70 nM, the antagonist equilibrium constant (Kb) was determined as 9 nM and the inhibition at 1 µM came to 78.5%. Moreover, at human orexin-1 receptor, the inhibition at 1 µM turned out to be 96.6%.

As to `CCc1cnc(NC[C@@H]2CCCN2C(=O)c2c(-c3ccccc3)nc3ccccn23)nc1` [Example 14], the inhibition at 1 µM at human orexin-2 receptor came to 18.3%; on human orexin-1 receptor, 14.8%.

On to `CCc1cnc(NC[C@@H]2CCCN2C(=O)c2c(-c3ccccc3)nn3ccccc23)nc1` [Example 15], for which, on human orexin-2 receptor, the inhibition at 1 µM came to 37.3%. Further, at human orexin-1 receptor, the IC50 was 178 nM, the Kb worked out at 37 nM and the inhibition at 1 µM came to 54.1%.

For the molecule `CCc1cnc(OC[C@@H]2CCCN2C(=O)c2c(-c3ccccc3)nn3c2COCC3)nc1` [Example 16], the inhibition at 1 µM at human orexin-2 receptor stood at 7.77%; at human orexin-1 receptor it was 0.59%.

Consider `O=C(c1c(-c2ccccc2)nn2c1COCC2)N1CCC[C@H]1COc1ccc(C(F)(F)F)cn1` [Example 17], for which the values for the inhibition at 1 µM on human orexin-2 receptor and at human orexin-1 receptor were 5.78% and 45.1%, respectively.

With `O=C(c1c(-c2ccccc2)nc2ccccn12)N1CCC[C@H]1COc1ccc(C(F)(F)F)cn1` [Example 18], the inhibition at 1 µM at human orexin-2 receptor turned out to be 29.6%. Moreover, on human orexin-1 receptor, the IC50 came to 293 nM, the Kb is 62 nM and the inhibition at 1 µM came to 70%.

As for `CCc1cnc(OC[C@@H]2CCCN2C(=O)c2c(-c3ccccc3)nc3ccccn23)nc1` [Example 19], the inhibition at 1 µM on human orexin-2 receptor is 11.2%; on human orexin-1 receptor, -10.8%.

`O=C(c1c(-c2ccccc2)nn2ccccc12)N1CCC[C@H]1COc1ccc(C(F)(F)F)cn1` [Example 20]: the inhibition at 1 µM at human orexin-2 receptor came out at 49.6%. For the same molecule, at human orexin-1 receptor, the IC50 was 11 nM, the Kb is 2 nM and the inhibition at 1 µM worked out at 84.9%.

Consider `CCc1cnc(OC[C@@H]2CCCN2C(=O)c2c(-c3ccccc3)nn3ccccc23)nc1` [Example 21], for which the inhibition at 1 µM worked out at 26.9% at human orexin-2 receptor and 38.8% on human orexin-1 receptor.

Take “Orexin A: excitatory hypothalamic neuropeptide, a 33 amino acid peptide; endogenous ligand of OX1R and OX2R (QPLPDCCRQKTCSCRLYELLHGAGNHAAGILTL; Orexin-A; UniProt O43612 34-66, looked up)”: the “affinity for OX1R, higher than Orexin B” value with OX1R was “about 100 fold”.
